# Assays:
# S. aureus VRSA = test: MIC, broth microdilution, vancomycin-resistant S. aureus (VRSA); assay type: cell-based, Staphylococcus aureus; conditions: for MIC: Staphylococcus aureus VRSA, read-out: MIC; for MIC-fold improvement vs. vancomycin: VRSA, ratio of MIC of vancomycin and MIC of analogue
# How it was run: (§1)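 Broth microdilution per CLSI; controls = ultrapure water, non-inoculated broth. One set: + vancomycin 10 μM final alongside test analogue/control drug.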
# [1] = system: human cervix carcinoma (HeLa) cells; test: Cytostatic activity, HeLa cell proliferation; assay type: cell-based; conditions: mean ± SD of three experiments; highest concentration tested 250 µM; 4 days; read-out: Toxicity (IC50) HeLa
# How it was run: (§2)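 Suspensions (300,000–500,000 cells/mL) combined with equal volumes of diluted compound; 37°C; L1210 2 d / CEM 3 d / HeLa 4 d; counted by Coulter counter; IC50 vs untreated wells.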
# [2] = system: Murine leukemia (L1210) cells; test: Cytostatic activity, L1210 cell proliferation; assay type: cell-based; conditions: mean ± SD of three experiments; highest concentration tested 250 µM; 2 days; read-out: Toxicity (IC50) L1210
# How it was run: as §2
# MRSA KS89 = test: MIC, broth microdilution, MRSA KS89; assay type: cell-based, Staphylococcus aureus; conditions: for MIC-fold improvement vs. vancomycin: MRSA KS8, ratio of MIC of vancomycin and MIC of analogue; for MIC: Staphylococcus aureus MRSA KS8, read-out: MIC
# How it was run: as §1
# [3] = system: L1210, CEM and HeLa cell lines; test: Cytostatic activity, average or summary over L1210, CEM and HeLa; assay type: cell-based; conditions: average of L1210, CEM and HeLa; read-out: Toxicity (IC50) Average
# How it was run: as §2
# MRSA KS2 = test: MIC, broth microdilution, MRSA KS2; assay type: cell-based, Staphylococcus aureus; conditions: for MIC-fold improvement vs. vancomycin: MRSA KS2, ratio of MIC of vancomycin and MIC of analogue; for MIC: Staphylococcus aureus MRSA KS2, read-out: MIC
# How it was run: as §1
# MRSA KS1 = test: MIC, broth microdilution, MRSA KS1; assay type: cell-based, Staphylococcus aureus; conditions: for MIC-fold improvement vs. vancomycin: MRSA KS1, ratio of MIC of vancomycin and MIC of analogue; for MIC: Staphylococcus aureus MRSA KS1, read-out: MIC
# How it was run: as §1
# E. faecalis VRE 29 = test: MIC, broth microdilution, vancomycin-resistant E. faecalis VRE 29 (VanA); assay type: cell-based, Enterococcus faecalis; conditions: for MIC: Enterococcus faecalis VRE 29 (vancomycin-resistant), read-out: MIC; for MIC-fold improvement vs. vancomycin: VRE 29, ratio of MIC of vancomycin and MIC of analogue
# How it was run: as §1
# S. aureus VISA/HIP5827 = test: MIC, broth microdilution, vancomycin-intermediate S. aureus VISA HIP5827; assay type: cell-based, Staphylococcus aureus; conditions: for MIC: Staphylococcus aureus VISA/HIP5827, read-out: MIC; for MIC-fold improvement vs. vancomycin: VISA/HIP5827, ratio of MIC of vancomycin and MIC of analogue
# How it was run: as §1
# [4] = system: human T-lymphocyte (CEM) cells; test: Cytostatic activity, CEM cell proliferation; assay type: cell-based; conditions: mean ± SD of three experiments; highest concentration tested 250 µM; 3 days; read-out: Toxicity (IC50) CEM
# How it was run: as §2
# E. faecalis VRE 53 = test: MIC, broth microdilution, vancomycin-resistant E. faecalis VRE 53 (VanA); assay type: cell-based, Enterococcus faecalis; conditions: for MIC: Enterococcus faecalis VRE 53 (vancomycin-resistant), read-out: MIC; for MIC-fold improvement vs. vancomycin: VRE 53, ratio of MIC of vancomycin and MIC of analogue
# How it was run: as §1
# MRSA KS6 = test: MIC, broth microdilution, MRSA KS6; assay type: cell-based, Staphylococcus aureus; conditions: for MIC-fold improvement vs. vancomycin: MRSA KS6, ratio of MIC of vancomycin and MIC of analogue; for MIC: Staphylococcus aureus MRSA KS6, read-out: MIC
# How it was run: as §1
# [5] = system: S. aureus VSSA (ATCC 6538); test: MIC, broth microdilution, vancomycin-sensitive S. aureus (VSSA/MSSA, ATCC 6538); assay type: cell-based, Staphylococcus aureus; conditions: for MIC: Staphylococcus aureus VSSA, read-out: MIC; for MIC-fold improvement vs. vancomycin: VSSA, ratio of MIC of vancomycin and MIC of analogue
# How it was run: as §1
# E. faecalis VRE 6 = test: MIC, broth microdilution, vancomycin-resistant E. faecalis VRE 6 (VanA); assay type: cell-based, Enterococcus faecalis; conditions: for MIC: Enterococcus faecalis VRE 6 (vancomycin-resistant), read-out: MIC; for MIC-fold improvement vs. vancomycin: VRE 6, ratio of MIC of vancomycin and MIC of analogue
# How it was run: as §1
# E. faecalis VSE 1 = test: MIC, broth microdilution, vancomycin-sensitive E. faecalis (VSE 1); assay type: cell-based, Enterococcus faecalis; conditions: for MIC: Enterococcus faecalis VSE 1 (vancomycin-sensitive), read-out: MIC; for MIC-fold improvement vs. vancomycin: VSE 1, ratio of MIC of vancomycin and MIC of analogue
# How it was run: as §1
# E. faecalis VRE 37 = test: MIC, broth microdilution, vancomycin-resistant E. faecalis VRE 37 (VanA); assay type: cell-based, Enterococcus faecalis; conditions: for MIC: Enterococcus faecalis VRE 37 (vancomycin-resistant), read-out: MIC; for MIC-fold improvement vs. vancomycin: VRE 37, ratio of MIC of vancomycin and MIC of analogue
# How it was run: as §1
MIC (S. aureus VRSA) [µM],MIC-fold improvement vs. vancomycin (S. aureus VRSA),MIC-fold improvement vs. vancomycin (MRSA KS89),MIC (MRSA KS89) [µM],MIC-fold improvement vs. vancomycin (MRSA KS2),MIC (MRSA KS2) [µM],MIC-fold improvement vs. vancomycin (MRSA KS1),MIC (MRSA KS1) [µM],MIC (E. faecalis VRE 29) [µM],MIC-fold improvement vs. vancomycin (E. faecalis VRE 29),MIC (S. aureus VISA/HIP5827) [µM],MIC-fold improvement vs. vancomycin (S. aureus VISA/HIP5827),MIC (E. faecalis VRE 53) [µM],MIC-fold improvement vs. vancomycin (E. faecalis VRE 53),MIC-fold improvement vs. vancomycin (MRSA KS6),MIC (MRSA KS6) [µM],SMILES,IC50 [1] [µM],IC50 [2] [µM],IC50 [3] [µM],IC50 [4] [µM],other results
0.78,128,4,0.20,4,0.20,4,0.20,1.56,256,0.05,128,3.13,128,4,0.20,CN[C@H](CC(C)C)C(=O)N[C@H]1C(=O)N[C@@H](CC(N)=O)C(=O)N[C@H]2C(=O)N[C@H]3C(=O)N[C@H](C(=O)N[C@H](C(=O)NCC(=O)Nc4ccc(C#Cc5ccccc5)cc4)c4cc(O)cc(O)c4-c4cc3ccc4O)[C@H](O)c3ccc(c(Cl)c3)Oc3cc2cc(c3O[C@@H]2O[C@H](CO)[C@@H](O)[C@H](O)[C@H]2O[C@H]2C[C@](C)(N)[C@H](O)[C@H](C)O2)Oc2ccc(cc2Cl)[C@H]1O [Vanc-38],24 ± 1,8 ± 3.1,12,4.4 ± 0.5,MIC [5]: 0.05 µM; MIC-fold improvement vs. vancomycin [5]: 16; MIC (E. faecalis VRE 6): 0.39 µM; MIC-fold improvement vs. vancomycin (E. faecalis VRE 6): 513; MIC (E. faecalis VSE 1): 0.20 µM; MIC-fold improvement vs. vancomycin (E. faecalis VSE 1): 8; MIC (E. faecalis VRE 37): 3.13 µM; MIC-fold improvement vs. vancomycin (E. faecalis VRE 37): 128
3.13,32,2,0.39,4,0.20,2,0.39,6.25,64,0.39,16,25,16,4,0.20,CN[C@H](CC(C)C)C(=O)N[C@H]1C(=O)N[C@@H](CC(N)=O)C(=O)N[C@H]2C(=O)N[C@H]3C(=O)N[C@H](C(=O)N[C@H](C(=O)NCCCNC(=O)c4ccc5ccccc5c4)c4cc(O)cc(O)c4-c4cc3ccc4O)[C@H](O)c3ccc(c(Cl)c3)Oc3cc2cc(c3O[C@@H]2O[C@H](CO)[C@@H](O)[C@H](O)[C@H]2O[C@H]2C[C@](C)(N)[C@H](O)[C@H](C)O2)Oc2ccc(cc2Cl)[C@H]1O [Vanc-28],68 ± 16,> 250,182,229 ± 12,MIC [5]: 0.39 µM; MIC-fold improvement vs. vancomycin [5]: 2; MIC (E. faecalis VRE 6): 3.13 µM; MIC-fold improvement vs. vancomycin (E. faecalis VRE 6): 64; MIC (E. faecalis VSE 1): 0.20 µM; MIC-fold improvement vs. vancomycin (E. faecalis VSE 1): 8; MIC (E. faecalis VRE 37): 12.5 µM
25,4,1,0.78,2,0.39,1,0.78,25,16,0.78,8,25,16,1,0.78,CN[C@H](CC(C)C)C(=O)N[C@H]1C(=O)N[C@@H](CC(N)=O)C(=O)N[C@H]2C(=O)N[C@H]3C(=O)N[C@H](C(=O)N[C@H](C(=O)NCC(=O)Nc4cc(C)ccc4O)c4cc(O)cc(O)c4-c4cc3ccc4O)[C@H](O)c3ccc(c(Cl)c3)Oc3cc2cc(c3O[C@@H]2O[C@H](CO)[C@@H](O)[C@H](O)[C@H]2O[C@H]2C[C@](C)(N)[C@H](O)[C@H](C)O2)Oc2ccc(cc2Cl)[C@H]1O [Vanc-18],> 250,> 250,> 250,> 250,MIC [5]: 0.78 µM; MIC-fold improvement vs. vancomycin [5]: 1; MIC (E. faecalis VRE 6): 12.5 µM; MIC-fold improvement vs. vancomycin (E. faecalis VRE 6): 16; MIC (E. faecalis VSE 1): 1.56 µM; MIC-fold improvement vs. vancomycin (E. faecalis VSE 1): 1; MIC (E. faecalis VRE 37): 50 µM; MIC-fold improvement vs. vancomycin (E. faecalis VRE 37): 8
